Patent US20210189346A1, “METHOD OF CULTURING PROLIFERATIVE HEPATOCYTES” (INSERM (INSTITUT NATIONAL DE LA SANTÉ ET DE LA RECHERCHE …, priority 2018, published 2021)
Read-outs that look alike come from different tables or passages of the source.

Assays:
CYP1A2 = type: cell-based, human; details: 3-MC 5 μM for 24 h; 3D versus control 2D culture
Experimental: Then, total RNA was extracted from cell pellets using NucleoSpin RNA (Macherey-Nagel, Hoerdt, France) and the concentration of total RNA was measured with a NanoDrop ND-1000 (NanoDrop Technologies, Wilmington, USA). Total RNA was used for cDNA synthesis using the High Capacity cDNA reverse transcription kit (Applied Biosystems, Saint Aubin, France). Real-time PCR for all genes was performed using SYBR green technology with the Power SYBR Green PCR master mix (Applied Biosystems, Saint Aubin, France) and the CFX384 Real-Time System (Biorad) according to the manufacturer's recommendations. Primer sequences used are described in Tables 2 and 3 below.
The amplification curves were analyzed with the Biorad CFX Manager software using the comparative regression method. GAPDH was used for the normalization of expression data. The relative amount of measured mRNA in samples was determined using the 2-ΔΔCT method where ΔΔCT=(CTtarget-CTGAPDH)sample−(CTtarget-CTGAPDH)calibrator. Final results were expressed as the n-fold differences in target gene expression in tested samples when compared with the mean expression value of calibrator. Values are given for one experiment representative of at least three independent experiments.

CYP 1A1/2 = details: human
[1] = test system: primary human hepatocytes (PHH); type: cell-based
Experimental: After 9 days, immuno-histochemical staining was performed as described hereinabove to detect the presence of phosphorylated H2AX (i.e., γH2Ax), a marker of DNA double-strand break, in the PHH.

[2] = test system: primary human hepatocytes (PHH)
Experimental: PHH either in control 2D culture (2D) or in 3D culture established according to the method of the invention in a collagen matrix (3D) were incubated with the indicated genotoxic drugs at the indicated concentrations (see Table 7) from the start of the culture. After 9 days, PHH were extracted from the collagen matrix by the action of purified collagenase. The cell pellets were resuspended in 0.5% low-melting point agarose and laid on conventional microscope slides covered with regular agarose. The electrophoresis migration was processed and after staining with propidium iodide, at least 100 images were acquired using a fluorescence microscope. The images were analyzed using the Comet Assay IV software. The extent of DNA damage in individual cells was evaluated by the percentage of tail DNA.

[3] = test system: primary human hepatocytes (PHH); remark: listed apart in the source
[4] = test system: MAPK MEK1/2-ERK1/2 pathway

## Cc1ccc2cc3c(ccc4ccccc43)c3c2c1CC3 [3-MC, 3-methylcholanthrene]
CYP1A2
  CYP1A2 mRNA expression after 3-MC induction: significantly increased CYP1A2 mRNA expression in PHH in 3D culture as compared to that in PHH in control 2D culture
CYP 1A1/2
  induction of CYP1A (EROD) activity: potentialization of 3-methylcholanthrene (3-MC) induction of CYP1A (EROD) activity was only observed in PHH in 3D culture

## Nc1ccc(-c2ccccc2)cc1 [4-ABP, 4-aminobiphenyl]
[1]; human
  PHH with DNA damages (γH2Ax positive cells): about 50%
[2]
  levels of DNA damages in 3D culture, in words: higher (about the double) and dose-dependent levels of DNA damages
[2]; human
  levels of DNA damages (percentage of tail DNA): about 3%

## N#CC(=C(/N)Sc1ccccc1N)/C(C#N)=C(\N)Sc1ccccc1N [U0126]
[3]
  Ki67 / cyclin D1 positive cells after transient MEK/ERK inhibition: No positive cells could be detected
[4]
  ERK1/2 activity (ERK1/2 phosphorylation): strong inhibition of ERK1/2 activity

## aflatoxin B1 [AFB1]
[1]
  PHH with DNA damages (γH2Ax positive cells): about 35%
